Laboratory results published in article PMC3914206.

What was measured:
Format in all cases: binding
panel of 442 kinases [1] = molecular target: T1, panel of 442 kinases (Homo sapiens, UniProt P29317); conditions: Compound Concentration 10 µM
T1 construct: purchased KINOMEscan
Text: (§1) We assessed the selectivity of members of this scaffold using the KINOMEscan methodology across a near comprehensive panel of 442 kinases [[18,27]].

panel of 442 kinases [2] = molecular target: T2, panel of 442 kinases (Homo sapiens, UniProt O95747); conditions: Compound Concentration 10 µM
T2 construct: purchased KINOMEscan
Text: as §1

panel of 442 kinases [3] = molecular target: T3, panel of 442 kinases (Homo sapiens, UniProt P42336, C420R); conditions: Compound Concentration 10 µM
T3 construct: purchased KINOMEscan
Text: as §1

panel of 442 kinases [4] = molecular target: T4, panel of 442 kinases (Homo sapiens, UniProt Q16620); conditions: kinase TRKB; compound concentration 10 µM
T4 construct: purchased KINOMEscan
Text: as §1

T1 sequence (P29317 24-976): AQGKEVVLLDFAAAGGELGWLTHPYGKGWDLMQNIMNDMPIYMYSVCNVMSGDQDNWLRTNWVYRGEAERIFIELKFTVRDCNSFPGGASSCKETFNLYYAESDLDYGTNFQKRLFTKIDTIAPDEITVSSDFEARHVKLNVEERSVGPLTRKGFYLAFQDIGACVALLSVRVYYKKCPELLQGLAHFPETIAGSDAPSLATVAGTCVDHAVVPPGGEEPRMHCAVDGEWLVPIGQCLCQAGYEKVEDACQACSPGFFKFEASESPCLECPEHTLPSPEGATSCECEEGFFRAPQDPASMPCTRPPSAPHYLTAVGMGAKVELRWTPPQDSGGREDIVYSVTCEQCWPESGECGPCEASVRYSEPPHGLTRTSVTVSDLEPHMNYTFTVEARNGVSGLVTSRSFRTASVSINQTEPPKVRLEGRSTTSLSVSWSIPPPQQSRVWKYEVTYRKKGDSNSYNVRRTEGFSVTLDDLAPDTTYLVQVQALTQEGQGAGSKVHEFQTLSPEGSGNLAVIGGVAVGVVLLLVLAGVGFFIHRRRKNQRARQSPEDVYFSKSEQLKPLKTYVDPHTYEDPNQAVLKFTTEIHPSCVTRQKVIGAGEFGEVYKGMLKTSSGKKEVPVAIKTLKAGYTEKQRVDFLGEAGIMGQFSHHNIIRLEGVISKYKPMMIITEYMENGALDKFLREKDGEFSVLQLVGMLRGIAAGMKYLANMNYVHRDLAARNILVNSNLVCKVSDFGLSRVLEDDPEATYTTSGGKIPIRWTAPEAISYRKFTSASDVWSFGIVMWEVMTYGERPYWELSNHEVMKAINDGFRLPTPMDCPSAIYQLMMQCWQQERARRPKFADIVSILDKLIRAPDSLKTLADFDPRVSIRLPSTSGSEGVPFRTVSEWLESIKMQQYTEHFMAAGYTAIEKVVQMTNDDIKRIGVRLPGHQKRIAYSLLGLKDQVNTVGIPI
T2 sequence (O95747 whole entry): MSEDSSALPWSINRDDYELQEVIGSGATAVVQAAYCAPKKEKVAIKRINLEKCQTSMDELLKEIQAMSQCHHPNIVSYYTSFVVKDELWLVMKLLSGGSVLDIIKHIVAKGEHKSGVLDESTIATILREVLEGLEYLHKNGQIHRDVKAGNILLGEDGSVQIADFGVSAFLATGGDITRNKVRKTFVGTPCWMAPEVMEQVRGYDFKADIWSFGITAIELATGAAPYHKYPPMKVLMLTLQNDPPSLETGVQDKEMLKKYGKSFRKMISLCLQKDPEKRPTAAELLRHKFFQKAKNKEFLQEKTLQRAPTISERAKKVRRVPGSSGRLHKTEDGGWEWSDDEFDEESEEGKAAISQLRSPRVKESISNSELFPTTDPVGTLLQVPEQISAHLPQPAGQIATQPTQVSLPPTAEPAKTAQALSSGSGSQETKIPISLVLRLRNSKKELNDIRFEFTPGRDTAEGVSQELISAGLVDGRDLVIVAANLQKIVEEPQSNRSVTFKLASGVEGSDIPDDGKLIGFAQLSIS
T3 sequence (P42336 whole entry C420R): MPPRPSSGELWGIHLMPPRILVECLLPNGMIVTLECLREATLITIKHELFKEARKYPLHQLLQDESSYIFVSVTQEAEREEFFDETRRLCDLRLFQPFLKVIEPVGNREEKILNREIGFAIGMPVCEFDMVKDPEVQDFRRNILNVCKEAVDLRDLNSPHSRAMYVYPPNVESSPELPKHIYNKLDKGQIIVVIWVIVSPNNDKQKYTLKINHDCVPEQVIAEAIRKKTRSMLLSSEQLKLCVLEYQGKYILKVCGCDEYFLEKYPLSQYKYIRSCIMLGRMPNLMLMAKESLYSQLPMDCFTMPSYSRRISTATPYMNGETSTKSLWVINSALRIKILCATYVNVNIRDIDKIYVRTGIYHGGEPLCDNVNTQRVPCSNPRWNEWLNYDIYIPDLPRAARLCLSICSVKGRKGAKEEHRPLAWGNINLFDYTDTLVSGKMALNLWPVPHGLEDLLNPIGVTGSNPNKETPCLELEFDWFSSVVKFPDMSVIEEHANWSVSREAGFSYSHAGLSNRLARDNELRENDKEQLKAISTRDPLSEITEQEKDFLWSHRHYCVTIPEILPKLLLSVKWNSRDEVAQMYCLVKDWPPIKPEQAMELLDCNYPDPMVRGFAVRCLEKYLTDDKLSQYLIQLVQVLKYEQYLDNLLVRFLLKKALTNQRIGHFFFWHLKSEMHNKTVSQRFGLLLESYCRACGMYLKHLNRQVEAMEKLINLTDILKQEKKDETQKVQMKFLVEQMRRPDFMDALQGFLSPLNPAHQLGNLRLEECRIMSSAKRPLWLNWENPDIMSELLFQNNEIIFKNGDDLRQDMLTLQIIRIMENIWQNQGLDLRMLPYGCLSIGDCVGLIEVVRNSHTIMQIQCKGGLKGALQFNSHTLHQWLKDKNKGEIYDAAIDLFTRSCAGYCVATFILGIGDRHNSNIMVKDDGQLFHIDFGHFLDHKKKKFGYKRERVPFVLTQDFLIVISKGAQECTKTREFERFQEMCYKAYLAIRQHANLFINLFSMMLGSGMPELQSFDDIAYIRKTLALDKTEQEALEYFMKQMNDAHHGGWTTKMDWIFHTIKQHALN
T4 sequence (Q16620 32-822): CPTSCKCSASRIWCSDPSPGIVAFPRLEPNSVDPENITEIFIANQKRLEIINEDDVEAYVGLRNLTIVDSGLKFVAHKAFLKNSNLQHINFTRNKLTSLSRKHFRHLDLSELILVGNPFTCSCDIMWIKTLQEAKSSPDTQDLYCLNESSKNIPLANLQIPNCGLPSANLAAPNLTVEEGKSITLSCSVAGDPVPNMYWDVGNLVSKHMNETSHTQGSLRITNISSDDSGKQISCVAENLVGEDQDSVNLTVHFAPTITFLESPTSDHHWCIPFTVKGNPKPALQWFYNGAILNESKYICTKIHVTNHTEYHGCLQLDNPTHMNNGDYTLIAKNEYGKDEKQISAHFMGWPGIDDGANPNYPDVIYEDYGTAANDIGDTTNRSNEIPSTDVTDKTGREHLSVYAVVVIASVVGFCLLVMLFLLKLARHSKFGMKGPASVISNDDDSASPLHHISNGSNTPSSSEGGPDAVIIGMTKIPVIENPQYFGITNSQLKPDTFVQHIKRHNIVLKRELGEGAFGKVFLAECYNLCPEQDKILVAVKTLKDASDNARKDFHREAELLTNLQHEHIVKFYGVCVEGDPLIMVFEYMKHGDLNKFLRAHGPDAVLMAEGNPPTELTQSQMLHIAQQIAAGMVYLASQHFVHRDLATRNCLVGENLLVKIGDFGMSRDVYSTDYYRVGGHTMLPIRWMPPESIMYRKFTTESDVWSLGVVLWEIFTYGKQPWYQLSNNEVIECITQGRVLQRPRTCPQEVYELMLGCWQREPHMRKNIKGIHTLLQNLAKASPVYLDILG

| SMILES | KINOMEscan: EPHA2 (panel of 442 kinases [1]) | KINOMEscan: OSR1 (panel of 442 kinases [2]) | KINOMEscan: PIK3CA(C420R) (panel of 442 kinases [3]) | % Ctrl, TRKB (panel of 442 kinases [4]) |
| --- | --- | --- | --- | --- |
| COc1cc(C(=O)N2CCC(N3CCN(C)CC3)CC2)ccc1Nc1ncc2c(n1)N1CCc3cccc(c31)C(=O)N2C [Compound 24] | 95 | 100 |  |  |
| CCOc1cc(C(=O)N2CCC(N3CCN(C)CC3)CC2)ccc1Nc1ncc2c(n1)N(C1CCCC1)c1ccccc1C(=O)N2C [Compound 26] | 100 | 99 | 99 | 100 % Ctrl |
| COc1cc(C(=O)N2CCC(N3CCN(C)CC3)CC2)ccc1Nc1ncc2c(n1)N(C1CCCC1)c1ccccc1C(=O)N2C [Compound 25, 11-cyclopentyl-2-((2-methoxy-4-(4-(4-methylpiperazin-1-yl)piperidine-1-carbonyl)phenyl)amino)-5-methyl-5H-benzo[e]pyrimido[5,4-b][1,4]diazepin-6(11H)-one] | 100 | 100 | 100 | 83 % Ctrl |
| COc1cc(C(=O)N2CCC(N3CCN(C)CC3)CC2)ccc1Nc1ncc2c(n1)N(C)c1ccccc1C(=O)N2C [15 (LRRK2-IN-1)] | 92 | 88 | 89 | 100 % Ctrl |
